The subject of the experiment is test plant species. As to the kind of experiment: Post-emergent herbicidal activity test (greenhouse, foliar spray, visual growth reduction). The experiment is classed as in vivo. The conditions noted are these: 140 g ai/ha; for pest or weed control at 140 g/ha: post-emergence, 336 h. Put shortly: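 Scoring used a 0 to 100 percent visual scale of growth reduction against solvent-treated controls, read 14 d after spraying. Applications went onto plants at first or second true leaf stage, 187 L/ha, with crop oil concentrate and X-77 surfactant in the carrier. Post-treatment watering was by subirrigation to avoid wash-off.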

Where [1] appears, read: ALOMY: blackgrass (Alopecurus myosuroides), 14 days after application, read-out: Visual Growth Reduction (%) 14 Days After Application, ALOMY.
Setting [2] is: AMARE: redroot pigweed (Amaranthus retroflexus), 14 days after application, read-out: Visual Growth Reduction (%) 14 Days After Application, AMARE.
Where [3] appears, read: AVEFA: wild oat (Avena fatua), 14 days after application, read-out: Visual Growth Reduction (%) 14 Days After Application, AVEFA.
The mark [4] stands for this setting: CHEAL: lambsquarters (Chenopodium album), 14 days after application, read-out: Visual Growth Reduction (%) 14 Days After Application, CHEAL.
Setting [5] is: CIRAR: canada thistle (Cirsium arvense), 14 days after application, read-out: Visual Growth Reduction (%) 14 Days After Application, CIRAR.
Where [6] appears, read: CYPES: yellow nutsedge (Cyperus esculentus), 14 days after application, read-out: Visual Growth Reduction (%) 14 Days After Application, CYPES.
Where [7] appears, read: DIGSA: crabgrass (Digitaria sanguinalis), 14 days after application, read-out: Visual Growth Reduction (%) 14 Days After Application, DIGSA.
The mark [8] stands for this setting: ECHCG: barnyardgrass (Echinochloa crus-galli), 14 days after application, read-out: Visual Growth Reduction (%) 14 Days After Application, ECHCG.
The mark [9] stands for this setting: IPOHE: ivy-leaf morning glory (Ipomoea hederacea), 14 days after application, read-out: Visual Growth Reduction (%) 14 Days After Application, IPOHE.
Where [10] appears, read: KCHSC: kochia (Bassia scoparia), 14 days after application, read-out: Visual Growth Reduction (%) 14 Days After Application, KCHSC.
[11] abbreviates: ORYSA: rice (Oryza sativa), 14 days after application, read-out: Visual Growth Reduction (%) 14 Days After Application, ORYSA.
Setting [12] is: SETFA: giant foxtail (Setaria faberi), 14 days after application, read-out: Visual Growth Reduction (%) 14 Days After Application, SETFA.
[13] abbreviates: SORVU: grain sorghum (Sorghum vulgare), 14 days after application, read-out: Visual Growth Reduction (%) 14 Days After Application, SORVU.
Setting [14] is: STEME: common chickweed (Stellaria media), 14 days after application, read-out: Visual Growth Reduction (%) 14 Days After Application, STEME.
Where [15] appears, read: TRZAS: wheat, spring (Triticum aestivum), 14 days after application, read-out: Visual Growth Reduction (%) 14 Days After Application, TRZAS.
Setting [16] is: blackgrass (Alopecurus myosuroides), 14 Days After Application, read-out: Visual Growth Reduction (%) ALOMY.
Setting [17] is: canada thistle (Cirsium arvense), 14 Days After Application, read-out: Visual Growth Reduction (%) CIRAR.
Setting [18] is: crabgrass (Digitaria sanguinalis), 14 Days After Application, read-out: Visual Growth Reduction (%) DIGSA.
Setting [19] is: lambsquarters (Chenopodium album), 14 Days After Application, read-out: Visual Growth Reduction (%) CHEAL.
Where [20] appears, read: redroot pigweed (Amaranthus retroflexus), 14 Days After Application, read-out: Visual Growth Reduction (%) AMARE.
The mark [21] stands for this setting: wild oat (Avena fatua), 14 Days After Application, read-out: Visual Growth Reduction (%) AVEFA.
The mark [22] stands for this setting: yellow nutsedge (Cyperus esculentus), 14 Days After Application, read-out: Visual Growth Reduction (%) CYPES.

Like-named read-outs stand apart in the source and are kept apart here.

Turning to `COC(=O)c1nc(-c2ccc([N+](=O)[O-])cc2)c(F)cc1Cl` [F197, Methyl 3-chloro-5-fluoro-6-(4-nitrophenyl) picolinate], the “Visual Growth Reduction (%) 14 Days After Application, ALOMY” value (ALOMY: blackgrass (Alopecurus myosuroides), 14 days after application) is recorded as “G (0-29)”. Besides, the “Visual Growth Reduction (%) 14 Days After Application, AMARE” value (AMARE: redroot pigweed (Amaranthus retroflexus), 14 days after application) is reported as “G (0-29)”. Further, under “AVEFA: wild oat (Avena fatua), 14 days after application”, the “Visual Growth Reduction (%) 14 Days After Application, AVEFA” value is recorded as “G (0-29)”. The “Visual Growth Reduction (%) 14 Days After Application, CHEAL” value (CHEAL: lambsquarters (Chenopodium album), 14 days after application) is “E (45-59)”. Where the note is “CIRAR: canada thistle (Cirsium arvense), 14 days after application”, the “Visual Growth Reduction (%) 14 Days After Application, CIRAR” value is “G (0-29)”. The “Visual Growth Reduction (%) 14 Days After Application, CYPES” value (CYPES: yellow nutsedge (Cyperus esculentus), 14 days after application) is recorded as “G (0-29)”. Also, the “Visual Growth Reduction (%) 14 Days After Application, DIGSA” value (DIGSA: crabgrass (Digitaria sanguinalis), 14 days after application) is listed as “F (30-44)”. Further, the “Visual Growth Reduction (%) 14 Days After Application, ECHCG” value (ECHCG: barnyardgrass (Echinochloa crus-galli), 14 days after application) is reported as “G (0-29)”. Also, the “Visual Growth Reduction (%) 14 Days After Application, IPOHE” value (IPOHE: ivy-leaf morning glory (Ipomoea hederacea), 14 days after application) is given as “D (60-74)”. In addition, the “Visual Growth Reduction (%) 14 Days After Application, KCHSC” value (KCHSC: kochia (Bassia scoparia), 14 days after application) is recorded as “G (0-29)”. In addition, the “Visual Growth Reduction (%) 14 Days After Application, ORYSA” value (ORYSA: rice (Oryza sativa), 14 days after application) is given as “G (0-29)”. For the same molecule, under “SETFA: giant foxtail (Setaria faberi), 14 days after application”, the “Visual Growth Reduction (%) 14 Days After Application, SETFA” value is given as “G (0-29)”. Where the note is “SORVU: johnsongrass (Sorghum vulgare), 14 days after application”, the “Visual Growth Reduction (%) 14 Days After Application, SORVU” value is “F (30-44)”. For the setting “STEME: common chickweed (Stellaria media), 14 days after application”, the “Visual Growth Reduction (%) 14 Days After Application, STEME” value is recorded as “G (0-29)”. Further, the “Visual Growth Reduction (%) 14 Days After Application, TRZAS” value (TRZAS: wheat, spring (Triticum aestivum), 14 days after application) is on record as “G (0-29)”.
For `O=C(O)c1nc(-c2ccc3occc3c2)c(F)cc1Cl` [F198, 6-(Benzofuran-5-yl)-3-chloro-5-fluoropicolinic acid], the pest or weed control at 140 g/ha was 0 to 29% under setting [1]; 0 to 29% under setting [2]; 0 to 29% under setting [3]; 0 to 29% under setting [4]; 0 to 29% under setting [5]; 0 to 29% under setting [6]. Besides, the pest or weed control at 140 g/ha by setting is: under setting [7], 0 to 29%; under setting [8], 0 to 29%; under setting [9], 60 to 74%; under setting [10], 0 to 29%; under setting [11], 0 to 29%; under setting [12], 0 to 29%. Besides, the pest or weed control at 140 g/ha runs as follows: under setting [13], 0 to 29%; under setting [14], 0 to 29%; under setting [15], 0 to 29%.
Turning to `O=C(O)c1nc(-c2ccc3[nH]ccc3c2)c(F)cc1Cl` [F199, 3-Chloro-5-fluoro-6-(1H-indol-5-yl)picolinic acid], the pest or weed control at 140 g/ha was 0 to 29% under setting [1]; 0 to 29% under setting [2]; 0 to 29% under setting [3]; 30 to 44% under setting [4]; 0 to 29% under setting [5]; 0 to 29% under setting [6]. Moreover, the pest or weed control at 140 g/ha is, setting by setting: under setting [7], 0 to 29%; under setting [8], 0 to 29%; under setting [9], 0 to 29%; under setting [10], 0 to 29%; under setting [11], 0 to 29%; under setting [12], 0 to 29%. Further, the pest or weed control at 140 g/ha fell in the range of 0 to 29% under setting [13], 0 to 29% under setting [14] and 0 to 29% under setting [15].
For `COC(=O)c1nc(-c2ccc(OC(F)F)cc2Cl)c(F)cc1Cl` [F200, Methyl 3-chloro-6-(2-chloro-4-(difluoromethoxy)phenyl)-5-fluoropicolinate], the pest or weed control at 140 g/ha runs as follows: under setting [8], 75 to 84%; under setting [9], 95 to 100%; under setting [10], 95 to 100%; under setting [11], 0 to 29%; under setting [12], 85 to 94%; under setting [13], 95 to 100%. In addition, the pest or weed control at 140 g/ha is, setting by setting: under setting [14], 30 to 44%; under setting [15], 75 to 84%; under setting [16], 45 to 59%; under setting [17], 95 to 100%; under setting [18], 95 to 100%; under setting [19], 95 to 100%. For the same molecule, the pest or weed control at 140 g/ha by setting is: under setting [20], 95 to 100%; under setting [21], 60 to 74%; under setting [22], 0 to 29%.
On to `COC(=O)c1nc(-c2ccc(C(F)(F)F)cc2Cl)ccc1[N+](=O)[O-]` [F201, Methyl 6-(2-chloro-4-(trifluoromethyl)phenyl)-3-nitropicolinate], for which the pest or weed control at 140 g/ha under setting [8] was in the range of 0 to 29%; the pest or weed control at 140 g/ha under setting [9] lay in the range of 0 to 29%; the pest or weed control at 140 g/ha under setting [10] was in the range of 0 to 29%; the pest or weed control at 140 g/ha under setting [11] lay in the range of 0 to 29%; the pest or weed control at 140 g/ha under setting [12] was in the range of 0 to 29%; the pest or weed control at 140 g/ha under setting [13] was 0 to 29%. In addition, the pest or weed control at 140 g/ha reads like this: under setting [14], 0 to 29%; under setting [15], 0 to 29%; under setting [16], 0 to 29%; under setting [17], 0 to 29%; under setting [18], 0 to 29%; under setting [19], 0 to 29%. For the same molecule, the pest or weed control at 140 g/ha by setting is: under setting [20], 45 to 59%; under setting [21], 0 to 29%; under setting [22], 0 to 29%.
On to `COC(=O)c1nc(-c2ccc3c(c2)C(F)(F)OC(F)(F)O3)c(Cl)cc1Cl` [F202, Methyl 3,5-dichloro-6-(2,2,4,4-tetrafluoro-4H-benzo[d][1,3]dioxin-6-yl)picolinate], for which the pest or weed control at 140 g/ha by setting is: under setting [8], 0 to 29%; under setting [9], 0 to 29%; under setting [10], 0 to 29%; under setting [11], 0 to 29%; under setting [12], 0 to 29%; under setting [13], 0 to 29%. Besides, the pest or weed control at 140 g/ha under setting [14] was in the range of 0 to 29%; the pest or weed control at 140 g/ha under setting [15] lay within 0 to 29%; the pest or weed control at 140 g/ha under setting [16] was 0 to 29%; the pest or weed control at 140 g/ha under setting [17] was 0 to 29%; the pest or weed control at 140 g/ha under setting [18] was 0 to 29%; the pest or weed control at 140 g/ha under setting [19] was in the range of 0 to 29%. Besides, the pest or weed control at 140 g/ha fell in the range of 0 to 29% under setting [20], 0 to 29% under setting [21] and 0 to 29% under setting [22].

(Values after patent publication US20230017045A1, “PYRIDINE AND PYRIMIDINE CARBOXYLATE HERBICIDES AND METHODS OF USE THEREOF” (Dow AgroSciences LLC, priority 2017, published 2023).)
